Earlier results as cited in PubChem BioAssay AID1259409 (Chemical Carcinogenesis Research Information System (CCRIS), 2018).

Test system: rodent chemically induced tumor inhibition, incidence and multiplicity
Assay: CCRIS tumor inhibitor studies
Settings: Promoter: NONE USED

CCO
tumour outcome (control, treated, inhibition, significance) (Carcinogen: AZOXYMETHANE, 25843-45-2, Dose [Inhibitor]: 33% OF TOTAL CALORIES OF DIET GIVEN CONTINUOUSLY FOR 3 WK PRIOR TO CARCINOGEN DOSE AND 10 WK DURING INDUCTION (STUDY DUR, Route [Inhibitor]: ORAL, Species: RAT, Strain/Sex: F344/MALE, Target Tissue: Type of Lesion: COLON: TUMOR, Dose [Carcinogen]: 14 MG/KG 1/WK FOR 10 WK): 91%, 5%, 94%, not calculated
tumour outcome (control, treated, inhibition, significance) (Carcinogen: AZOXYMETHANE, 25843-45-2, Dose [Inhibitor]: 33% OF TOTAL CALORIES OF DIET GIVEN CONTINUOUSLY FOR 3 WK PRIOR TO CARCINOGEN DOSE AND 10 WK DURING INDUCTION (STUDY DUR, Route [Inhibitor]: ORAL, Species: RAT, Strain/Sex: F344/MALE, Target Tissue: Type of Lesion: EAR CANAL: TUMOR, Dose [Carcinogen]: 14 MG/KG 1/WK FOR 10 WK): 9%, 0%, 100%, not calculated
tumour outcome (control, treated, inhibition, significance) (Carcinogen: AZOXYMETHANE, 25843-45-2, Dose [Inhibitor]: 33% OF TOTAL CALORIES OF DIET GIVEN CONTINUOUSLY FOR 3 WK PRIOR TO CARCINOGEN DOSE AND 10 WK DURING INDUCTION (STUDY DUR, Route [Inhibitor]: ORAL, Species: RAT, Strain/Sex: F344/MALE, Target Tissue: Type of Lesion: SMALL INTESTINE: TUMOR, Dose [Carcinogen]: 14 MG/KG 1/WK FOR 10 WK): 74%, 0%, 100%, p<0.0001
tumour outcome (control, treated, inhibition, significance) (Carcinogen: ETHYL CARBAMATE, 51-79-6, Dose [Inhibitor]: 0, 12% ADMINISTERED WITH CARCINOGEN IN DRINKING WATER FOR 41 WK (STUDY DURATION: 41 WK), Route [Inhibitor]: ORAL, Species: MOUSE, Strain/Sex: C3H/MALE, Target Tissue: Type of Lesion: LIVER: HEMANGIOENDOTHELIOMA, Dose [Carcinogen]: 20 MG/KG IN DRINKING WATER FOR 41 WK): 14%, 14%, 0%, not calculated
tumour outcome (control, treated, inhibition, significance) (Carcinogen: ETHYL CARBAMATE, 51-79-6, Dose [Inhibitor]: 0, 12% ADMINISTERED WITH CARCINOGEN IN DRINKING WATER FOR 41 WK (STUDY DURATION: 41 WK), Route [Inhibitor]: ORAL, Species: MOUSE, Strain/Sex: C3H/MALE, Target Tissue: Type of Lesion: LIVER: HEMANGIOSARCOMA, Dose [Carcinogen]: 10 MG/KG IN DRINKING WATER FOR 41 WK): 5%, 0%, 100%, not significant
tumour outcome (control, treated, inhibition, significance) (Carcinogen: ETHYL CARBAMATE, 51-79-6, Dose [Inhibitor]: 0, 12% ADMINISTERED WITH CARCINOGEN IN DRINKING WATER FOR 41 WK (STUDY DURATION: 41 WK), Route [Inhibitor]: ORAL, Species: MOUSE, Strain/Sex: C3H/MALE, Target Tissue: Type of Lesion: LIVER: HEMANGIOSARCOMA, Dose [Carcinogen]: 20 MG/KG IN DRINKING WATER FOR 41 WK): 24%, 0%, 100%, not significant
tumour outcome (control, treated, inhibition, significance) (Carcinogen: ETHYL CARBAMATE, 51-79-6, Dose [Inhibitor]: 0, 12% ADMINISTERED WITH CARCINOGEN IN DRINKING WATER FOR 41 WK (STUDY DURATION: 41 WK), Route [Inhibitor]: ORAL, Species: MOUSE, Strain/Sex: C3H/MALE, Target Tissue: Type of Lesion: LIVER: HEPATOCELLULAR ADENOMA, Dose [Carcinogen]: 10 MG/KG IN DRINKING WATER FOR 41 WK): 57%, 24%, 58%, not significant
tumour outcome (control, treated, inhibition, significance) (Carcinogen: ETHYL CARBAMATE, 51-79-6, Dose [Inhibitor]: 0, 12% ADMINISTERED WITH CARCINOGEN IN DRINKING WATER FOR 41 WK (STUDY DURATION: 41 WK), Route [Inhibitor]: ORAL, Species: MOUSE, Strain/Sex: C3H/MALE, Target Tissue: Type of Lesion: LIVER: HEPATOCELLULAR ADENOMA, Dose [Carcinogen]: 20 MG/KG IN DRINKING WATER FOR 41 WK): 48%, 57%, -19%, not significant
tumour outcome (control, treated, inhibition, significance) (Carcinogen: ETHYL CARBAMATE, 51-79-6, Dose [Inhibitor]: 0, 12% ADMINISTERED WITH CARCINOGEN IN DRINKING WATER FOR 41 WK (STUDY DURATION: 41 WK), Route [Inhibitor]: ORAL, Species: MOUSE, Strain/Sex: C3H/MALE, Target Tissue: Type of Lesion: LIVER: HEPATOCELLULAR CARCINOMA, Dose [Carcinogen]: 10 MG/KG IN DRINKING WATER FOR 41 WK): 5%, 0%, 100%, not significant
tumour outcome (control, treated, inhibition, significance) (Carcinogen: ETHYL CARBAMATE, 51-79-6, Dose [Inhibitor]: 0, 12% ADMINISTERED WITH CARCINOGEN IN DRINKING WATER FOR 41 WK (STUDY DURATION: 41 WK), Route [Inhibitor]: ORAL, Species: MOUSE, Strain/Sex: C3H/MALE, Target Tissue: Type of Lesion: LIVER: HEPATOCELLULAR CARCINOMA, Dose [Carcinogen]: 20 MG/KG IN DRINKING WATER FOR 41 WK): 14%, 5%, 64%, not significant
tumour outcome (control, treated, inhibition, significance) (Carcinogen: ETHYL CARBAMATE, 51-79-6, Dose [Inhibitor]: 0, 12% ADMINISTERED WITH CARCINOGEN IN DRINKING WATER FOR 41 WK (STUDY DURATION: 41 WK), Route [Inhibitor]: ORAL, Species: MOUSE, Strain/Sex: C3H/MALE, Target Tissue: Type of Lesion: LUNG: ALVEOLAR ADENOMA, Dose [Carcinogen]: 10 MG/KG IN DRINKING WATER FOR 41 WK): 19%, 0%, 100%, not significant
tumour outcome (control, treated, inhibition, significance) (Carcinogen: ETHYL CARBAMATE, 51-79-6, Dose [Inhibitor]: 0, 12% ADMINISTERED WITH CARCINOGEN IN DRINKING WATER FOR 41 WK (STUDY DURATION: 41 WK), Route [Inhibitor]: ORAL, Species: MOUSE, Strain/Sex: C3H/MALE, Target Tissue: Type of Lesion: LUNG: ALVEOLAR ADENOMA, Dose [Carcinogen]: 20 MG/KG IN DRINKING WATER FOR 41 WK): 48%, 38%, 21%, not significant
tumour outcome (control, treated, inhibition, significance) (Carcinogen: ETHYL CARBAMATE, 51-79-6, Dose [Inhibitor]: 0, 12% ADMINISTERED WITH CARCINOGEN IN DRINKING WATER FOR 41 WK (STUDY DURATION: 41 WK), Route [Inhibitor]: ORAL, Species: MOUSE, Strain/Sex: C3H/MALE, Target Tissue: Type of Lesion: LUNG: CLARA-CELL ADENOMA, Dose [Carcinogen]: 10 MG/KG IN DRINKING WATER FOR 41 WK): 52%, 24%, 54%, not significant
tumour outcome (control, treated, inhibition, significance) (Carcinogen: ETHYL CARBAMATE, 51-79-6, Dose [Inhibitor]: 0, 12% ADMINISTERED WITH CARCINOGEN IN DRINKING WATER FOR 41 WK (STUDY DURATION: 41 WK), Route [Inhibitor]: ORAL, Species: MOUSE, Strain/Sex: C3H/MALE, Target Tissue: Type of Lesion: LUNG: CLARA-CELL ADENOMA, Dose [Carcinogen]: 20 MG/KG IN DRINKING WATER FOR 41 WK): 57%, 38%, 33%, not significant
tumour outcome (control, treated, inhibition, significance) (Carcinogen: ETHYL CARBAMATE, 51-79-6, Dose [Inhibitor]: 0, 20% SIMULTANEOUSLY WITH CARCINOGEN 1/D FOR 8 WK (STUDY DURATION: 16 WK), Route [Inhibitor]: GAVAGE, Species: MOUSE, Strain/Sex: NMRI/FEMALE, Target Tissue: Type of Lesion: LUNG: ADENOMA, Dose [Carcinogen]: 18 MG/KG IN 20% ETHANOL 1/D FOR 8 WK (CONTROL GROUP ADMINISTERED CARCINOGEN IN WATER)): 65%, 76%, -17%, not significant
tumour outcome (control, treated, inhibition, significance) (Carcinogen: ETHYL CARBAMATE, 51-79-6, Dose [Inhibitor]: 0, 20% SIMULTANEOUSLY WITH CARCINOGEN 1/D FOR 8 WK (STUDY DURATION: 16 WK), Route [Inhibitor]: GAVAGE, Species: MOUSE, Strain/Sex: NMRI/FEMALE, Target Tissue: Type of Lesion: LUNG: ADENOMA, Dose [Carcinogen]: 36 MG/KG IN 20% ETHANOL 1/D FOR 8 WK (CONTROL GROUP ADMINISTERED CARCINOGEN IN WATER)): 96%, 83%, 14%, not significant
tumour outcome (control, treated, inhibition, significance) (Carcinogen: ETHYL CARBAMATE, 51-79-6, Dose [Inhibitor]: 0, 20% SIMULTANEOUSLY WITH CARCINOGEN 1/D FOR 8 WK (STUDY DURATION: 16 WK), Route [Inhibitor]: GAVAGE, Species: MOUSE, Strain/Sex: NMRI/FEMALE, Target Tissue: Type of Lesion: LUNG: ADENOMA, Dose [Carcinogen]: 90 MG/KG IN 20% ETHANOL 1/D FOR 8 WK (CONTROL GROUP ADMINISTERED CARCINOGEN IN WATER)): 100%, 100%, 0%, not significant
